One data set is filed under the species Rattus norvegicus. The following applies: in vivo, po.
A short description of data set [1]: in vivo. The following applies: rat, plasma, po.
Data set [2] in a line: in vivo. To be noted: rat, po.
Data set [3] can be described thus: Plasma concentration in collagen-induced Lewis rat arthritic model at 1 mg/kg, po qd measured at 2 hrs. The arrangement: dose 1 mg/kg, route oral. The format is ADME, organism-based.
A short description of data set [4]: Plasma concentration in collagen-induced Lewis rat arthritic model at 1 mg/kg, po qd measured at 8 hrs. Type of data set: ADME, organism-based. On the set-up: dose 1 mg/kg, route oral.
The nature of data set [5]: Cmax in collagen-induced Lewis rat arthritic model at 3 mg/kg, po qd. Type of data set: ADME, organism-based. On the set-up: dose 3 mg/kg, route oral. To be noted: in vivo.
Data set [6] in a line: Plasma concentration in collagen-induced Lewis rat arthritic model at 10 mg/kg, po qd measured at 8 hrs. Type of data set: ADME, organism-based. The arrangement: dose 10 mg/kg, route oral.
Data set [7] in a line: Plasma concentration in collagen-induced Lewis rat arthritic model at 3 mg/kg, po qd measured at 2 hrs. The format is ADME, organism-based. The arrangement: dose 3 mg/kg, route oral.
Data set [8] deals with Plasma. As to the kind of experiment: Plasma concentration in collagen-induced Lewis rat arthritic model at 10 mg/kg, po qd measured immediately post compound dosing. The format is ADME, organism-based. The arrangement: dose 10 mg/kg, route oral. The following applies: in vivo.
The nature of data set [9]: Plasma concentration in collagen-induced Lewis rat arthritic model at 3 mg/kg, po qd measured at 8 hrs. The format is ADME, organism-based. The arrangement: dose 3 mg/kg, route oral.
The nature of data set [10]: Plasma concentration in collagen-induced Lewis rat arthritic model at 10 mg/kg, po qd measured at 4 hrs. The format is ADME, organism-based. On the set-up: dose 10 mg/kg, route oral.
Data set [11] in a line: physchem.
A short description of data set [12]: in vivo. The following applies: rat, po. The source holds these as a separate data set.
Data set [13] in a line: Plasma concentration in collagen-induced Lewis rat arthritic model at 10 mg/kg, po qd measured at 2 hrs. Type of data set: ADME, organism-based. On the set-up: dose 10 mg/kg, route oral.
Data set [14] in a line: Plasma concentration in collagen-induced Lewis rat arthritic model at 1 mg/kg, po qd measured at 24 hrs. Type of data set: ADME, organism-based. On the set-up: dose 1 mg/kg, route oral.
A short description of data set [15]: Plasma concentration in collagen-induced Lewis rat arthritic model at 1 mg/kg, po qd measured at 4 hrs. On the set-up: dose 1 mg/kg, route oral. The format is ADME, organism-based.
The test system of data set [16] is Plasma. Nature of the data set: Plasma concentration in collagen-induced Lewis rat arthritic model at 3 mg/kg, po qd measured immediately post compound dosing. Type of data set: ADME, organism-based. The arrangement: dose 3 mg/kg, route oral. The following applies: in vivo.
The nature of data set [17]: Plasma concentration in collagen-induced Lewis rat arthritic model at 10 mg/kg, po qd measured at 24 hrs. The format is ADME, organism-based. On the set-up: dose 10 mg/kg, route oral.
Data set [18] in a line: Plasma concentration in collagen-induced Lewis rat arthritic model at 3 mg/kg, po qd measured at 24 hrs. The format is ADME, organism-based. The arrangement: dose 3 mg/kg, route oral.
The test system of data set [19] is Plasma. Nature of the data set: Plasma concentration in collagen-induced Lewis rat arthritic model at 1 mg/kg, po qd measured immediately post compound dosing. To be noted: in vivo. On the set-up: dose 1 mg/kg, route oral. The format is ADME, organism-based.
The nature of data set [20]: physchem. The following applies: octanol/buffer.
Data set [21] in a line: Plasma concentration in collagen-induced Lewis rat arthritic model at 3 mg/kg, po qd measured at 4 hrs. The format is ADME, organism-based. The arrangement: dose 3 mg/kg, route oral.

In the data set listed under Rattus norvegicus, `NC(=O)c1ncc(N[C@@H]2CCCC[C@@H]2N)nc1-c1cc2ccccc2[nH]1` gave a CL free of 255 mL/min/kg. Also, in the data set “in vivo [1]”, the CL/F (in general, clearance divided by bioavailability, as obtained after extravascular dosing) amounted to 44 mL/min/kg. For the same compound, in “in vivo [2]”, the half-life – broadly, the time in which the quantity being followed falls by half – was 2.8 h.

Turning to `Cc1cc(C)nc(Nc2cc(N[C@@H]3CCCC[C@@H]3N)cnc2C(N)=O)c1`, the CL free in the data set filed under Rattus norvegicus was 710 mL/min/kg. The CL/F in “in vivo [1]” came to 33 mL/min/kg. The figures for the concentration at 2 h in data set [3], in [7] and in [13] were 40 nM, 60 nM and 200 nM, respectively. Also, the concentration at 8 h in data set [4] was 90 nM; in data set [6], 500 nM; in data set [9], 100 nM. For the same compound, in data set [5], the highest concentration (Cmax) (as a rule, the maximum level reached in the sampled fluid or tissue) was determined as 200 nM. Besides, the results for the concentration with Plasma [8], in the data set on Plasma [16] and in the data set with Plasma [19] were 10 nM, 7 nM and 5 nM, respectively. In addition, the concentration at 4 h in data set [10] is 500 nM; in [15] it was 100 nM; in data set [21], 200 nM. For the same compound, in the data set “physchem [11]”, the pKa (usually the pH at which an ionisable group is half protonated) at 100 µM came to 9. Also, the bioavailability – broadly, dose-corrected exposure relative to a reference, in per cent – in “in vivo [12]” amounted to 19%. In addition, the concentration at 24 h in [14] was 5 nM; in data set [17], 10 nM; in data set [18], 7 nM. The half-life in “in vivo [2]” is 2.7 h. Further, the log distribution coefficient (logD) (as a rule, the decadic logarithm of the distribution of all forms, ionised or not, between an organic phase and buffer at a given pH) at 500 µM in “physchem [20]” came to 2.1.

Consider `COc1cccc2[nH]c(-c3nc(N[C@@H]4CCOC[C@@H]4N)cnc3C(N)=O)cc12`, for which, in the data set listed under Rattus norvegicus, the CL free was 100 mL/min/kg. In “in vivo [1]”, the apparent clearance (CL/F) turned out to be 25 mL/min/kg. In “in vivo [12]”, the bioavailability worked out at 29%. The compound further had a half-life in the data set “in vivo [2]” of 3.5 h.

The record behind these values is ChEMBL document CHEMBL3414497, “Overcoming mutagenicity and ion channel activity: optimization of selective spleen tyrosine kinase inhibitors” (J Med Chem, 2015).
